pEC50, pIC50: −log10 of the molar value.
Legend:
[1] = system: HL-60; test: HL-60 differentiation potency; format: cell-based; details: Homo sapiens
[2] = in vitro; details: human

| SMILES | pEC50 [1] | pIC50 [2] |
| --- | --- | --- |
| Cc1cc(CN[C@@H]2O[C@@H]3O[C@@]4(C)CC[C@H]5[C@H](C)CC[C@@H]([C@H]2C)[C@@]35OO4)cc(C)n1 [Compound 37, (3R,5aS,6R,8aS, 9R,10R,12R, 12aR)-N-((2,6-dimethylpyridin-4-yl)methyl)-3,6,9-trimethyldeca-hydro-12H-3,12-epoxy[1,2] dioxepino[4,3-i] isochromen-10-amine] | 6.26 | 6.23 |
| C[C@H]1[C@@H](OCc2ccc(-c3nn[nH]n3)cc2)O[C@@H]2O[C@@]3(C)CC[C@H]4[C@H](C)CC[C@@H]1[C@@]24OO3 [Compound 38, 5-(4-((((3R,5aS,6R,8aS, 9R,10S,12R, 12aR)-3,6,9-trimethyldeca-hydro-12H-3,12-epoxy[1,2]dioxepino[4,3-i]isochromen-10-yl)oxy)methyl)phenyl)-2H-tetrazole] | 6.21 | 4.88 |
| C[C@H]1[C@H](OCc2ccc(C(=O)O)c(F)c2)O[C@@H]2O[C@@]3(C)CC[C@H]4[C@H](C)CC[C@@H]1[C@@]24OO3 [Compound 39, 2-fluoro-4-((((3R,5aS,6R,8aS, 9R,10R,12R, 12aR)-3,6,9-trimethyldeca-hydro-12H-3,12-epoxy[1,2]dioxepino[4,3-i]isochromen-10-yl)oxy)methyl) benzoic acid] | 6.20 | < 4.70 |
| C[C@H]1[C@H](OC[C@H]2CC[C@H](C(=O)O)CC2)O[C@@H]2O[C@@]3(C)CC[C@H]4[C@H](C)CC[C@@H]1[C@@]24OO3 [Compound 40, (1R,4r)-4-((((3R,5aS,6R,8aS, 9R,10R,12R, 12aR)-3,6,9-trimethyldeca-hydro-12H-3,12-epoxy[1,2]dioxepino[4,3-i]isochromen-10-yl)oxy)methyl) cyclohexane-1-carboxylic acid] | 6.17 | < 4.70 |
| Cc1cc(CO[C@H]2O[C@@H]3O[C@@]4(C)CC[C@H]5[C@H](C)CC[C@@H]([C@H]2C)[C@@]35OO4)ccc1C(=O)O [Compound 41, 2-methyl-4-((((3R,5aS,6R, 8aS,9R,10S,12R, 12aR)-3,6,9-trimethyldeca-hydro-12H-3,12-epoxy[1,2]dioxepino[4,3-i]isochromen-10-yl)oxy)methyl) benzoic acid] | 6.13 | < 4.70 |
| C[C@H]1[C@H](OCC2CCC(C(=O)O)CC2)O[C@@H]2O[C@@]3(C)CC[C@H]4[C@H](C)CC[C@@H]1[C@@]24OO3 (stereo partly drawn) [Compound 42, (1S,4s)-4-((((3R,5aS,6R, 8aS,9R,10R,12R, 12aR)-3,6,9-trimethyldeca-hydro-12H-3,12-epoxy[1,2]dioxepino[4,3-i]isochromen-10-yl)oxy)methyl) cyclohexane-1-carboxylic acid] | 6.11 | < 4.70 |
| C[C@H]1[C@@H](OC[C@H]2CC[C@H](C(=O)O)CC2)O[C@@H]2O[C@@]3(C)CC[C@H]4[C@H](C)CC[C@@H]1[C@@]24OO3 [Compound 43, (1S,4r)-4-((((3R,5aS,6R, 8aS,9R,10S,12R, 12aR)-3,6,9-trimethyldeca-hydro-12H-3,12-epoxy[1,2]dioxepino[4,3-i]isochromen-10-yl)oxy)methyl) cyclohexane-1-carboxylic acid] | 6.05 | < 4.70 |
| Cc1cc(C(=O)O)ccc1CO[C@@H]1O[C@@H]2O[C@@]3(C)CC[C@H]4[C@H](C)CC[C@@H]([C@H]1C)[C@@]24OO3 [Compound 44, 3-methyl-4-((((3R,5aS,6R,8aS, 9R,10R,12R, 12aR)-3,6,9-trimethyldeca-hydro-12H-3,12-epoxy[1,2]dioxepino[4,3-i]isochromen-10-yl)oxy)methyl) benzoic acid] | 5.99 | < 4.70 |
| C[C@H]1[C@H](NCc2cnn(C)c2)O[C@@H]2O[C@@]3(C)CC[C@H]4[C@H](C)CC[C@@H]1[C@@]24OO3 [Compound 46, (3R,5aS,6R,8aS, 9R,10R,12R, 12aR)-3,6,9-trimethyl-N-((1-methyl-1H-pyrazol-4-yl)methyl)decahydro-12H-3,12-epoxy[1,2] dioxepino[4,3-i] isochromen-10-amine] | 5.84 | 5.36 |
| CCN(CC)Cc1ccc(C(C)O[C@@H]2O[C@@H]3O[C@@]4(C)CC[C@H]5[C@H](C)CC[C@@H]([C@H]2C)[C@@]35OO4)cc1O (stereo partly drawn) [Compound 47, 2-((diethylamino)methyl)-5-(1-(((3R,5aS,6R,8aS, 9R,10R,12R, 12aR)-3,6,9-trimethyldeca-hydro-12H-3,12-epoxy[1,2]dioxepino[4,3-i]isochromen-10-yl)oxy)ethyl) phenol] | 5.77 | 5.39 |
| C[C@H]1[C@H](OCc2ccc(S(N)(=O)=O)cc2)O[C@@H]2O[C@@]3(C)CC[C@H]4[C@H](C)CC[C@@H]1[C@@]24OO3 [Compound 49, 4-((((3R,5aS,6R,8aS, 9R,10R,12R, 12aR)-3,6,9-trimethyldeca-hydro-12H-3,12-epoxy[1,2]dioxepino[4,3-i]isochromen-10-yl)oxy)methyl) benzene-sulfonamide] | 5.68 | ≤ 4.70 |

Now those with a higher pEC50 [1], led by results:

| pEC50 [1] | pIC50 [2] | SMILES |
| --- | --- | --- |
| 6.66 | < 4.70 | C[C@H]1[C@@H](Oc2ccc(C(=O)O)c(F)c2)O[C@H]2O[C@@]3(C)CC[C@H]4[C@H](C)CC[C@@H]1[C@@]24OO3 [Compound 25, 2-fluoro-4-(((3R,5aS,6R,8aS, 9R,10S,12S, 12aR)-3,6,9-trimethyldeca-hydro-12H-3,12-epoxy[1,2]dioxepino[4,3-i]isochromen-10-yl)oxy)benzoic acid] |
| 6.65 | < 4.70 | C[C@H]1[C@@H](Oc2ccc(CC(=O)O)c(F)c2)O[C@@H]2O[C@@]3(C)CC[C@H]4[C@H](C)CC[C@@H]1[C@@]24OO3 [Compound 26, 2-(2-fluoro-4-(((3R,5aS,6R, 8aS,9R,10S,12R, 12aR)-3,6,9-trimethyldeca-hydro-12H-3,12-epoxy[1,2]dioxepino[4,3-i]isochromen-10-yl)oxy)phenyl) acetic acid] |
| 6.62 | < 4.70 | C[C@H]1[C@@H](Oc2ccc(F)c(CC(=O)O)c2)O[C@@H]2O[C@@]3(C)CC[C@H]4[C@H](C)CC[C@@H]1[C@@]24OO3 [Compound 27, 2-(2-fluoro-5-(((3R,5aS,6R, 8aS,9R,10S,12R, 12aR)-3,6,9-trimethyldeca-hydro-12H-3,12-epoxy[1,2]dioxepino[4,3-i]isochromen-10-yl)oxy)phenyl) acetic acid] |
| 6.59 | 6.35 | C[C@H]1[C@H](NCCS(=O)(=O)C(F)(F)F)O[C@@H]2O[C@@]3(C)CC[C@H]4[C@H](C)CC[C@@H]1[C@@]24OO3 [Compound 28, (3R,5aS,6R,8aS, 9R,10R,12R, 12aR)-3,6,9-trimethyl-N-(2-((trifluoromethyl)sulfonyl)ethyl) decahydro-12H-3,12-epoxy[1,2] dioxepino[4,3-i] isochromen-10-amine] |
| 6.55 | < 4.70 | C[C@H]1[C@@H](OCc2cc(F)c(C(=O)O)c(F)c2)O[C@@H]2O[C@@]3(C)CC[C@H]4[C@H](C)CC[C@@H]1[C@@]24OO3 [Compound 29, 2,6-difluoro-4-((((3R,5aS,6R, 8aS,9R,10S,12R, 12aR)-3,6,9-trimethyldeca-hydro-12H-3,12-epoxy[1,2]dioxepino[4,3-i]isochromen-10-yl)oxy)methyl) benzoic acid] |
| 6.52 | 5.45 | C[C@H]1[C@@H](OCc2ccc(C(N)=O)cc2)O[C@@H]2O[C@@]3(C)CC[C@H]4[C@H](C)CC[C@@H]1[C@@]24OO3 [Compound 30, 4-((((3R,5aS, 6R,8aS,9R,10S, 12R,12aR)-3,6,9-trimethyldeca-hydro-12H-3,12-epoxy[1,2]dioxepino[4,3-i]isochromen-10-yl)oxy)methyl) benzamide] |
| 6.49 | < 4.70 | C[C@H]1[C@@H](OCc2ccc(C(=O)O)c(F)c2F)O[C@@H]2O[C@@]3(C)CC[C@H]4[C@H](C)CC[C@@H]1[C@@]24OO3 [Compound 31, 2,3-difluoro-4-((((3R,5aS,6R, 8aS,9R,10S,12R, 12aR)-3,6,9-trimethyldeca-hydro-12H-3,12-epoxy[1,2]dioxepino[4,3-i]isochromen-10-yl)oxy)methyl) benzoic acid] |
| 6.48 | < 4.70 | C[C@H]1[C@@H](OCc2ccc(C(=O)O)o2)O[C@@H]2O[C@@]3(C)CC[C@H]4[C@H](C)CC[C@@H]1[C@@]24OO3 [Compound 32, 5-((((3R,5aS,6R, 8aS,9R,10S,12R, 12aR)-3,6,9-trimethyldeca-hydro-12H-3,12-epoxy[1,2]dioxepino[4,3-i]isochromen-10-yl)oxy)methyl) furan-2-carboxylic acid] |
| 6.46 | < 4.70 | C[C@H]1[C@@H](OCc2ccc(C(=O)O)c(Cl)c2)O[C@@H]2O[C@@]3(C)CC[C@H]4[C@H](C)CC[C@@H]1[C@@]24OO3 [Compound 33, 2-chloro-4-((((3R,5aS,6R, 8aS,9R,10S,12R, 12aR)-3,6,9-trimethyldeca-hydro-12H-3,12-epoxy[1,2]dioxepino[4,3-i]isochromen-10-yl)oxy)methyl) benzoic acid] |
| 6.32 | < 4.70 | C[C@H]1[C@@H](OCc2cccc(CC(=O)O)c2)O[C@@H]2O[C@@]3(C)CC[C@H]4[C@H](C)CC[C@@H]1[C@@]24OO3 [Compound 34, 2-(3-((((3R,5aS,6R, 8aS,9R,10S,12R, 12aR)-3,6,9-trimethyldeca-hydro-12H-3,12-epoxy[1,2]dioxepino[4,3-i]isochromen-10-yl)oxy)methyl)phenyl)acetic acid] |
| 6.32 | < 4.70 | COc1cc(CO[C@H]2O[C@@H]3O[C@@]4(C)CC[C@H]5[C@H](C)CC[C@@H]([C@H]2C)[C@@]35OO4)ccc1C(=O)O [Compound 35, 2-methoxy-4-((((3R,5aS,6R, 8aS,9R,10S,12R, 12aR)-3,6,9-trimethyldeca-hydro-12H-3,12-epoxy[1,2]dioxepino[4,3-i]isochromen-10-yl)oxy)methyl) benzoic acid] |
| 6.28 | < 4.70 | C[C@H]1[C@@H](OCCc2ccc(C(=O)O)cc2)O[C@@H]2O[C@@]3(C)CC[C@H]4[C@H](C)CC[C@@H]1[C@@]24OO3 [Compound 36, 4-(2-(((3R,5aS,6R,8aS, 9R,10S,12R, 12aR)-3,6,9-trimethyldeca-hydro-12H-3,12-epoxy[1,2]dioxepino[4,3-i]isochromen-10-yl)oxy)ethyl) benzoic acid] |
